In patent US10766914B2, “DNA alkylating agents” (OBI PHARMA, INC., priority 2015, dated 2020):

Assays:
[1] = Example 4-E body weight change, 786-O xenograft study; assay type: in vivo, female nude mice (nu/nu); settings: 40 mpk, qd × 5/wk × 2
Description: Cells were mixed with Matrigel (50% with exception for 30% in the H460) and 0.2 ml per mouse were subcutaneously implanted to the flank area of the animals. When tumor size reached 100-150 250 mm3, mice were randomized into experimental or vehicle groups with 10 mice/group and treatment was started (Day 1). The tested compounds were formulated in 5% DMSO in D5W. […] Tumor growth and body weight were measured twice a week. Tumor volume was calculated as (length×width2)/2. Drug efficacy was assessed as Tumor Growth Inhibition (TGI) and Tumor Growth Delay (TGD). TGI was defined as (1−ΔT/ΔC)×100, where ΔT/ΔC presented the ratio of the change in mean (or median, if variation within the group was relatively large) tumor volume of the treated group and of the control group. TGD was calculated as the extra days for the treated tumor to reach 500 mm3 or 1000 mm3 as compared to the control group. Animals were culled when individual tumor size reached over 2000 mm3 or mean tumor volume exceeded 1000 mm3 in the group. Data are expressed as the mean±SEM. One-way analysis of variance with Dunnett post comparison test (GraphPad Prism 4) or two-tailed student's t-test were used for analysis. A P level <0.05 was considered statistically significant.
The compound TH-2768 was tested in a renal cell carcinoma 786-O model. The compound was dosed as follows. […]

[2] = system: A 549 non-small cell lung xenograft; assay: Example 4-B antitumor efficacy, ectopic A549 NSCLC xenograft model; assay type: in vivo, female nude mice (nu/nu)
Description: (§1) Specific pathogen-free homozygous female nude mice (nu/nu, Charles River Laboratories) were used. Mice were given food and water ad libitum and housed in microisolator cages. Four to six week old animals were identified by microchips (Locus Technology, Manchester, Md., USA) at the time of the experiments. All animal studies were approved by the Institutional Animal Care and Use Committee at Threshold Pharmaceuticals, Inc.
(§2) All cell lines were from the American Type Culture Collection (ATCC, Rockville, Md., USA).
(§3) Cells were mixed with Matrigel (50% with exception for 30% in the H460) and 0.2 ml per mouse were subcutaneously implanted to the flank area of the animals. When tumor size reached 100-150 250 mm3, mice were randomized into experimental or vehicle groups with 10 mice/group and treatment was started (Day 1). The tested compounds were formulated in 5% DMSO in D5W. The regimens employed in the examples include IP, QD×5/wk (5 days on, 2 days off) as one cycle, for a total of 2 cycles; IP, once; IP, weekly for total 3 weeks; and IV, weekly for 3 weeks. Tumor growth and body weight were measured twice a week. Tumor volume was calculated as (length×width2)/2. Drug efficacy was assessed as Tumor Growth Inhibition (TGI) and Tumor Growth Delay (TGD). TGI was defined as (1−ΔT/ΔC)×100, where ΔT/ΔC presented the ratio of the change in mean (or median, if variation within the group was relatively large) tumor volume of the treated group and of the control group. TGD was calculated as the extra days for the treated tumor to reach 500 mm3 or 1000 mm3 as compared to the control group. Animals were culled when individual tumor size reached over 2000 mm3 or mean tumor volume exceeded 1000 mm3 in the group. Data are expressed as the mean±SEM. One-way analysis of variance with Dunnett post comparison test (GraphPad Prism 4) or two-tailed student's t-test were used for analysis. A P level <0.05 was considered statistically significant.
The dosing was as follows. Daily IP dosing: 5 doses then 2 days off then 5 more doses starting at 110 mm^3 tumors on day 1 (10 animals per group average tumor volume).
Doses were selected by first doing a toxicity test in CD1 mice as described above. The compounds were tested against Thio-tepa.

[3] = Example 4-A body weight change, H460 xenograft study; assay type: in vivo, female nude mice (nu/nu)
Description: as §3, with “A P level <0.05 was considered statistically significant.” left out

H460 cells = assay: Proliferation assay in H460 cells (2 hr exposure, AlamarBlue); assay type: cell-based, human; settings: Homo sapiens, NCI-H460, 2 hrs exposure, wash, 70 hrs growth, read-out: IC 50 in proliferation assay in H460 cells
How it was run: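 H460 cells seeded at 4×10^3/well, grown 24 h, then exposed to compound for 2 h at 37 °C. Drug was washed off and cells were regrown 70 h in fresh medium. Viable cells were read by AlamarBlue, and IC50 was taken as the concentration giving 50% growth inhibition.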

[4] = system: A375 melanoma human tumor xenograft; assay: Example 4-C antitumor efficacy, ectopic A375 melanoma xenograft model; assay type: in vivo, female nude mice (nu/nu); settings: qd × 5 × 2, ip
Description: as §1, §2, §3
his study employed an A375 melanoma human tumor xenograft model and various compounds provided herein were compared to thiotepa and the approved anti melanoma drug, nab-Paclitaxel.

[5] = system: H460 non-small cell lung cancer xenograft tumor; assay: Example 4-A antitumor efficacy, ectopic H460 NSCLC xenograft model; assay type: in vivo, female nude mice (nu/nu); settings: for TGD 500 / TGD 1000 / TGI: H460
Description: as §1, §2, §3
Compounds provided herein were tested in vivo human tumor xenograft models and compared to standard chemotherapeutic agents such as gemcitabine, nab-paclitaxel. […] The compound was dosed as follows: daily IP dosing: 5 doses then 2 days off then 5 more doses starting at 100 mm^3 tumors on day 1 (10 animals per group median tumor volume). It is contemplated that in some embodiments, the compounds provided herein are activated by human and not by mouse enzymes. The antitumor effects and the safety of administration are graphically illustrated in FIGS. 3-20 below.

[6] = system: renal cell carcinoma 786-O xenograft; assay: Example 4-E antitumor efficacy, renal cell carcinoma 786-O xenograft model; assay type: in vivo, female nude mice (nu/nu); settings: 40 mpk, qd × 5/wk × 2
Description: as §1, §2
Cells were mixed with Matrigel (50% with exception for 30% in the H460) and 0.2 ml per mouse were subcutaneously implanted to the flank area of the animals. When tumor size reached 100-150 250 mm3, mice were randomized into experimental or vehicle groups with 10 mice/group and treatment was started (Day 1). The tested compounds were formulated in 5% DMSO in D5W. […] Tumor growth and body weight were measured twice a week. Tumor volume was calculated as (length×width2)/2. Drug efficacy was assessed as Tumor Growth Inhibition (TGI) and Tumor Growth Delay (TGD). […] TGD was calculated as the extra days for the treated tumor to reach 500 mm3 or 1000 mm3 as compared to the control group. […] Data are expressed as the mean±SEM. […]

[7] = Example 4-C body weight change, A375 xenograft study; assay type: in vivo, female nude mice (nu/nu); settings: 40 mpk, qd × 5 × 2, ip
Description: as §3
his study employed an A375 melanoma human tumor xenograft model and various compounds provided herein were compared to thiotepa and the approved anti melanoma drug, nab-Paclitaxel. The antitumor effects and the safety of administration are graphically illustrated below.

[8] = Example 4-B body weight change, A549 xenograft study; assay type: in vivo, female nude mice (nu/nu)
Description: as §3
Antitumor effects of compounds provided herein were determined on A 549 non-small cell lung xenograft model in comparison with a chemotherapy agent, thiotepa. The dosing was as follows. Daily IP dosing: 5 doses then 2 days off then 5 more doses starting at 110 mm^3 tumors on day 1 (10 animals per group average tumor volume). The antitumor effects and the safety of administration are graphically illustrated below.

H460 NSCLC xenograft [9] = assay: Example 4-G antitumor efficacy, ectopic H460 NSCLC xenograft model; assay type: in vivo, female nude mice (nu/nu); settings: ip, Q7D × 3
Description: as §1, §2, §3
(§4) The compounds TH-3040 and TH-3045 were tested in a H460 model. The compounds were dosed as follows. A dose-dependent TH-3040 or TH-3045 was given IP weekly for 3 weeks, from 5 to 45 mg/kg starting at 100 mm^3 tumors on day 1 (10 animals per group average tumor volume). The antitumor effects and the safety of administration are graphically illustrated below.

[10] = Example 4-G body weight change, H460 xenograft study; assay type: in vivo, female nude mice (nu/nu); settings: ip, Q7D × 3
Description: as §3, §4

H460 NSCLC xenograft [11] = assay: Example 4-I antitumor efficacy, ectopic H460 NSCLC xenograft model; assay type: in vivo, female nude mice (nu/nu); settings: 10 mg/kg, iv, Q7D × 3
Description: as §1, §2, §3
(§5) The compound TH-2870 was tested in a H460 model. The compound was dosed follows. 1.5, 5 or 15 mg/kg, IV, weekly for 3 weeks at 250 mm^3 tumors on day 1 (10 animals per group average tumor volume), comparing with docetaxel. The antitumor effects and the safety of administration are graphically illustrated below.

[12] = Example 4-I body weight change, H460 xenograft study; assay type: in vivo, female nude mice (nu/nu); settings: 10 mg/kg, iv, Q7D × 3
Description: as §3, §5

Q: For `CC(OP(=O)(N1CC1)N1CC1)c1ccc([N+](=O)[O-])c(Oc2ccccc2)c1` (centres unmarked) [Compound 2768], which “Max. BW loss %” value ([1]; ip) is on record?
A: The value was 0.0%.

Q: What about the “TGD 500” value ([2]; 40 mg/kg ip QD × 5/wk × 2 wks) of the same compound?
A: The value was >72 days.

Q: What about the TGI ([2]; 40 mg/kg ip QD × 5/wk × 2 wks) of the same compound?
A: Its TGI is 100.6%.

Q: And the “TGD 500” value ([2]; 80 mg/kg ip QD × 5/wk × 2 wks)?
A: Its value is >72 days.

Q: And the TGI ([2]; 80 mg/kg ip QD × 5/wk × 2 wks)?
A: The TGI was 104.4%.

Q: What about the “Max. BW loss %” value ([3]; 40 mg/kg ip QD × 5/wk × 2 wks) of the same compound?
A: Its value is 4.0%.

Q: And the IC50 (H460 cells)?
A: Its IC50 is 40 nM.

Q: What about the “TGD 500” value ([4]; 40 mpk) of the same compound?
A: The value was 7 days.

Q: What about the “TGD 1000” value ([4]; 40 mpk) of the same compound?
A: Its value is 7 days.

Q: And the inhibition in vivo at 40 mg/kg ([4]; Mus musculus, A-375, 40 mpk, read-out: TGI)?
A: Its inhibition in vivo at 40 mg/kg is 36.7%.

Q: And the “TGD 500” value ([5]; 40 mg/kg ip QD × 5/wk × 2 wks)?
A: Its value is 56 days.

Q: What about the “TGD 1000” value ([5]; 40 mg/kg ip QD × 5/wk × 2 wks) of the same compound?
A: The value was 62 days.

Q: What about the TGI ([5]; 40 mg/kg ip QD × 5/wk × 2 wks) of the same compound?
A: The TGI was 104.1%.

Q: What about the “antitumor effect as a monotherapy” value ([5]; H460 study, versus gemcitabine) of the same compound?
A: The value was “superior to the effect of gemcitabine”.

Q: What about the TGI ([6]; ip) of the same compound?
A: Its TGI is 73.0%.

Q: What about the “Max. BW loss %” value [7] of the same compound?
A: The value was 0%.

Q: What about the “Max. BW loss %” value ([8]; 40 mg/kg ip QD × 5/wk × 2 wks) of the same compound?
A: Its value is 0.0%.

Q: And the “Max. BW loss %” value ([8]; 80 mg/kg ip QD × 5/wk × 2 wks)?
A: The value was 4.8%.

Q: Which results are given for `C[C@@H](OP(=O)(N1CC1)N1CC1)c1ccc([N+](=O)[O-])c(Oc2ccc(-c3ccccc3)cc2)c1` [Compound 3045]?
A: TGD 500 (H460 NSCLC xenograft [9]; 5 mpk): 48 days; TGI (H460 NSCLC xenograft [9]; 5 mpk): 104.0%; TGD 500 (H460 NSCLC xenograft [9]; 15 mpk): 70 days; TGI (H460 NSCLC xenograft [9]; 15 mpk): 104.8%; TGD 500 (H460 NSCLC xenograft [9]; 45 mpk): 86 days; TGI (H460 NSCLC xenograft [9]; 45 mpk): 106.3%; Max BW loss ([10]; 5 mpk): 0.0%; Max BW loss ([10]; 15 mpk): 2.8%; Max BW loss ([10]; 45 mpk): 2.4%; IC50 (H460 cells): 4 nM

Q: Which “TGD500, Days (vs. vehicle)” value (H460 NSCLC xenograft [11]; H460) does the source give for `CC(=O)O[C@@]12CO[C@@H]1C[C@H](O)[C@@]1(C)C(=O)[C@H](O)C3=C(C)[C@@H](OC(=O)[C@H](O)[C@@H](NC(=O)OC(C)(C)C)c4ccccc4)C[C@@](O)([C@@H](OC(=O)c4ccccc4)[C@H]21)C3(C)C` [Doectaxel, docetaxel, reference compound] here?
A: The value was 6 days.

Q: What about the “TGD1000, Days (vs. vehicle)” value (H460 NSCLC xenograft [11]; H460) of the same compound?
A: Its value is 9 days.

Q: What about the TGI (H460 NSCLC xenograft [11]; H460, 250 mm3 tumors on day 1) of the same compound?
A: The TGI was 51.3%.

Q: What about the “Max. BW loss %” value [12] of the same compound?
A: The value was 12.4%.

Q: For `Nc1ccn([C@@H]2O[C@H](CO)[C@@H](O)C2(F)F)c(=O)n1` [GEM, gemcitabine, reference compound], which “Max. BW loss %” value ([3]; 60 mg/kg ip Q3D × 5) is on record?
A: Its value is 4.9%.

Q: What about the “TGD 500” value ([5]; 60 mg/kg ip Q3D × 5) of the same compound?
A: The value was 7 days.

Q: What about the “TGD 1000” value ([5]; 60 mg/kg ip Q3D × 5) of the same compound?
A: The value was 7 days.

Q: What about the TGI ([5]; 60 mg/kg ip Q3D × 5) of the same compound?
A: Its TGI is 42.7%.

Q: Which “Max. BW loss %” value ([1]; po) does the source give for `CCN(CC)CCNC(=O)c1c(C)[nH]c(/C=C2\C(=O)Nc3ccc(F)cc32)c1C` [Sunitinib, sunitinib, reference compound] here?
A: Its value is 0.3%.

Q: And the TGI ([6]; po)?
A: The TGI was 67.8%.
